Data on eleven molecules can be found in patent US5607922A, “1,5-anhydrohexitol nucleoside analogues” (Stichting Rega VZW, priority 1992, dated 1997).

In brackets after ≈: the same amount, converted by molar mass. Like-named read-outs stand apart in the source and are kept apart here. Bounds are passed on as bounds.

Data set [1] deals with Vesicular stomatitis virus. Nature of the data set: microbe, parasite or virus in culture. The conditions noted are these: E6SM, read-out: Minimum inhibitory concentration Vesicular stomatitis virus. It is filed as cell-based.
Data set [2] deals with herpes simplex virus 2 (HSV-2) (G). Put plainly: microbe, parasite or virus in culture. It is filed as cell-based. The conditions noted are these: Human alphaherpesvirus 2, E6SM.
The subject of data set [3] is herpes simplex virus type 1 (HSV-1) (KOS). Put plainly: microbe, parasite or virus in culture. It is filed as cell-based. As to conditions: Human alphaherpesvirus 1, E6SM.
Another data set concerns vaccinia virus (VV). Nature of the data set: microbe, parasite or virus in culture. It is filed as cell-based. The conditions noted are these: Orthopoxvirus vaccinia, E6SM.
The nature of a further data set: in vitro. The conditions noted are these: human, e6 sm cells, Minimum cytotoxic concentration.
Another data set relates to herpes viruses. As to conditions: in words; literature; cited from earlier work.
The next data set concerns herpes simplex (1 and 2). Nature of the data set: Anti-herpes simplex (1 and 2) activity, statement in words. It is filed as cell-based, herpes simplex virus.
Setting [4] is: Table I, E6 SM cells, required to reduce virus-induced cytopathogenesis by 50%, read-out: Minimum inhibiting concentration ED50 HSV-2 (G).
The mark [5] stands for this setting: read-out: Minimum inhibitory concentration Herpes simplex virus-2 (G).
The mark [6] stands for this setting: Table I, E6 SM cells, required to reduce virus-induced cytopathogenesis by 50%, read-out: Minimum inhibiting concentration ED50 HSV-1 (KOS).
Where [7] appears, read: read-out: Minimum inhibitory concentration Herpes simplex virus-1 (KOS).
Where [8] appears, read: read-out: Minimum inhibiting concentration ED50 VV.
The mark [9] stands for this setting: read-out: Minimum inhibitory concentration Vaccinia virus.
The mark [10] stands for this setting: Table III, required to cause a microscopically detectable alteration of normal cell morphology.

Consider `Nc1nccc2c1ncn2[C@@H]1C[C@H](CO)[C@@H](O)[C@H]1O` (relative stereo) [C-c^3 Ado, carbocyl 3-deaza adenosine], for which the EC50 in data set [1] is 0.2 µg/mL (≈ 0.757 µM); in data set [2] (setting [4]), 40 µg/mL (≈ 151 µM); in data set [2] (setting [5]), above 200 µg/mL; in data set [3] (setting [6]) it was above 400 µg/mL; in data set [3] (setting [7]), above 200 µg/mL; in the data set with vaccinia virus (VV) (setting [8]), 0.7 µg/mL (≈ 2.65 µM). Also, in the data set with vaccinia virus (VV) (setting [9]), the EC50 worked out at 0.2 µg/mL (≈ 0.757 µM). Further, the results for the MCC in the data set “in vitro” and in “in vitro” (setting [10]) were above 400 µg/mL and at least 200 µg/mL, respectively.
`Nc1ncnc2c1ncn2C[C@H](O)CO` [(S)-DHPA, (S)-9-(2,3-dihydroxypropyl)-adenine]: the EC50 is 20 µg/mL (≈ 95.6 µM) in data set [1]; 300 µg/mL (≈ 1430 µM) in data set [2] (setting [4]); above 200 µg/mL in data set [2] (setting [5]); 70 µg/mL (≈ 335 µM) in data set [3] (setting [6]); above 200 µg/mL in data set [3] (setting [7]); 20 µg/mL (≈ 95.6 µM) in the data set with vaccinia virus (VV) (setting [9]). In addition, the MCC is above 400 µg/mL in the data set “in vitro” and at least 200 µg/mL in the data set “in vitro” (setting [10]).
For the molecule `O=c1[nH]c(=O)n([C@H]2C[C@H](O)[C@@H](CO)O2)cc1/C=C/Br` [BVDU, E-5-(2-bromovinyl)-2'-deoxyuridine], the “anti-viral activity against herpes viruses” value with herpes viruses is “dependent on a virus-specific thymidine kinase”. Moreover, the EC50 was above 200 µg/mL in data set [1]; 10 µg/mL (≈ 30 µM) in data set [2] (setting [4]); above 200 µg/mL in data set [2] (setting [5]); 0.004 µg/mL (≈ 0.012 µM) in data set [3] (setting [7]); 0.2 µg/mL (≈ 0.6 µM) in the data set with vaccinia virus (VV) (setting [8]); 0.7 µg/mL (≈ 2.1 µM) with vaccinia virus (VV) (setting [9]). The MCC in the data set “in vitro” was above 400 µg/mL; in the data set “in vitro” (setting [10]), at least 200 µg/mL.
In the case of `Nc1ncnc2c1ncn2[C@@H]1CO[C@H](CO)[C@@H](O)C1` [Compound 10, 1,5-Anhydro-2-(adenin-9-yl) 2,3-dideoxy-D-arabinohexitol], the EC50 in data set [2] (setting [4]) amounted to 7 µg/mL (≈ 26.4 µM); in data set [3] (setting [6]) it was 7 µg/mL (≈ 26.4 µM); in the data set with vaccinia virus (VV) (setting [8]) it was 20 µg/mL (≈ 75.4 µM). Moreover, the MCC in “in vitro” was above 400 µg/mL.
For the molecule `Nc1nc(O)c2ncn([C@@H]3CO[C@H](CO)[C@@H](O)C3)c2n1` [Compound 13, 1,5-Anhydro-2-(guanin-9-yl)-2,3-dideoxy-D-arabinohexitol], the figures for the EC50 (in data set [2] (setting [4]); in data set [3] (setting [6]); in the data set on vaccinia virus (VV) (setting [8])) were 0.1 µg/mL (≈ 0.356 µM), 0.2 µg/mL (≈ 0.711 µM) and 2 µg/mL (≈ 7.11 µM), respectively. Also, in “in vitro”, the MCC was above 400 µg/mL.
For `Cc1cn([C@@H]2CO[C@H](CO)[C@@H](O)C2)c(=O)[nH]c1=O` [Compound 17, 1,5-Anhydro-2,3-dideoxy2-(thymin-1-yl)-D-arabinohexitol], in that order: 150 µg/mL (≈ 585 µM), 40 µg/mL (≈ 156 µM), above 200 µg/mL and above 400 µg/mL.
With `O=c1[nH]c(=O)n([C@@H]2CO[C@H](CO)[C@@H](O)C2)cc1I` [Compound 18, 1,5-Anhydro-2,3-dideoxy-2-(5-iodouracil-1-yl)-D-arabino-hexitol], the “anti-herpes simplex (1 and 2) activity” value in the data set with herpes simplex (1 and 2) was “especially advantageous anti-herpes simplex (1 and 2) activity”. Also, the EC50 was found to be 0.07 µg/mL (≈ 0.19 µM) in data set [2] (setting [4]), 0.07 µg/mL (≈ 0.19 µM) in data set [3] (setting [6]) and 150 µg/mL (≈ 407 µM) with vaccinia virus (VV) (setting [8]). Further, the MCC in the data set “in vitro” was above 400 µg/mL.
As for `Nc1ccn([C@@H]2CO[C@H](CO)[C@@H](O)C2)c(=O)n1` [Compound 20, 1,5-Anhydro-2-(cytosin-1-yl)-2,3-dideoxy-D-arabinohexitol], the values for the EC50 (in data set [2] (setting [4]); in data set [3] (setting [6]); with vaccinia virus (VV) (setting [8])) were 0.04 µg/mL (≈ 0.166 µM), 0.7 µg/mL (≈ 2.9 µM) and 0.7 µg/mL (≈ 2.9 µM), respectively. The MCC in the data set “in vitro” was above 400 µg/mL.
As to `CCc1cn([C@@H]2CO[C@H](CO)[C@@H](O)C2)c(=O)[nH]c1=O` [Compound 23, 1,5-Anhydro-2,3-dideoxy-2-(5-ethyluracil-1-yl)-D-arabinohexitol], the “anti-herpes simplex (1 and 2) activity” value in the data set on herpes simplex (1 and 2) is “especially advantageous anti-herpes simplex (1 and 2) activity”. Further, the EC50 in data set [1] was above 200 µg/mL; in data set [2] (setting [5]), 0.2 µg/mL (≈ 0.74 µM); in data set [3] (setting [7]), below 0.04 µg/mL; in the data set with vaccinia virus (VV) (setting [9]), above 200 µg/mL. In “in vitro” (setting [10]), this molecule showed an MCC above 200 µg/mL.
`O=c1[nH]c(=O)n([C@H]2C[C@H](O)[C@@H](CO)O2)cc1I` [IDU, 5-iodo-2'-deoxyuridine]: the “anti-viral activity against herpes viruses” value with herpes viruses is reported as “dependent on a virus-specific thymidine kinase”. The EC50 (in data set [2] (setting [4]); in data set [3] (setting [6]); in the data set with vaccinia virus (VV) (setting [8])) was 0.2 µg/mL (≈ 0.565 µM) throughout. In “in vitro”, this molecule gave an MCC above 400 µg/mL.
With `NC(=O)c1ncn(C2O[C@H](CO)[C@@H](O)[C@H]2O)n1` (stereo partly drawn) [Ribavirin, 1-ribofuranosyl-3-carbamoyl-1,2,4-triazol], the EC50 in data set [1] was 20 µg/mL (≈ 81.9 µM); in data set [2] (setting [4]) it was 70 µg/mL (≈ 287 µM); in data set [2] (setting [5]), above 400 µg/mL; in data set [3] (setting [6]), 70 µg/mL (≈ 287 µM); in data set [3] (setting [7]), 200 µg/mL (≈ 819 µM); with vaccinia virus (VV) (setting [9]), 70 µg/mL (≈ 287 µM). For the same molecule, the MCC in the data set “in vitro” and in the data set “in vitro” (setting [10]) was above 400 µg/mL each time.
